Patent US8313752B2, “Macrocyclic lactone combination compositions, vaccines and methods for producing same” (Merial Limited, priority 2009, dated 2012)
Values joined by “and” are separate entries in the source; they are usually repeats but may differ in a detail not shown here. Equal values may be shown once. Read-outs that look alike come from different tables or passages of the source. Each block holds one compound with its values, some of them ahead of it.

How the values were obtained:
cattle = assay: Local tissue irritancy / injection site reactions after intramuscular injection; format: in vivo, Dairy cows (Friesian and Friesian cross); conditions: for Injection site reactions, Count, Day 1 / Injection site reactions, Count, Day 3 / Injection site reactions, Count, Day 7 / Injection site reactions, Count, Day 14 / Injection site reactions, Count, Day 21: cows with reaction in group of 4; for Animals with injection site reactions that persisted at least until 21 days after treatment: group of 4 cows
Experimental: (§1) Study Objectives: 1) To measure ML residues in milk and tissues of lactating dairy cows after a single dose of an experimental formulation of eprinomectin, ivermectin, moxidectin or doramectin combined with an inactivated rotavirus, coronavirus and Escherichia coli vaccine was administered by intramuscular injection at 0.3 and 0.4 mg macrocyclic lactone/kg bodyweight. 2) To evaluate local tissue irritancy of the experimental formulations when administered to cattle by intramuscular injection.
(§2) The formulations were administered by deep intramuscular injection in the anterior neck region. Injection sites were clean and dry and inspected for lesions prior to injection. Injections were administered with a different 10 mL syringe for each product. A sterile 18 gauge 1½ inch needle was used for each injection. The time of treatment was recorded. Evidence of pain on injection was assessed.
Injection sites were examined by inspection and palpation at the morning milking on Days 1, 3, 7 and 14. Any visible or palpable reactions were described and measured (width, length and depth). Reactions that persisted after day 14 were re-evaluated on Day 21.

[1] = ML residues in milk of lactating dairy cows after single IM dose of ML/vaccine combination (LC-MS/MS); format: in vivo, Dairy cows (Friesian and Friesian cross); conditions: for ML residue in milk, Day 14 / ML residue in milk, Day 21 / ML residue in milk, Day 7 / concentration at 7 day / concentration at 14 day / concentration at 21 day / ML residue in milk fat, Day 7 / ML residue in milk fat, Day 14 / ML residue in milk fat, Day 21: individual cows; for Residues in milk at 7 days after treatment relative to ACVM MRLs / Residues in milk at 21 days after treatment relative to LOQ: 0.3 and 0.4 mg/kg IM; for concentration at 7 day / concentration at 14 day / concentration at 21 day: female, Friesian and Friesian cross, cattle, intramuscular
Experimental: as §1
Experimental formulations of each of four macrocyclic lactones were separately combined with equal parts of a registered vaccine, Rotavec® Corona (Schering-Plough). The recommended dose of Rotavec® Corona is 2 mL per animal, which was diluted to produce 4 mL of ML/vaccine combination. Each ML/vaccine combination contained 40 mg/mL macrocyclic lactone.
Methods: On day −5, fifty-four animals were identified for screening and were checked for mastitis by palpation of the mammary gland, visualization of the mammary secretions and Rapid Mastitis Test (RMT, Immucell, Portland, Me.). Individual milk samples were collected for somatic cell count (SCC) and thirty-three animals that met the inclusion criteria were selected for the study. Of the thirty-three animals, the cow with the highest average daily milk yield, as assessed over a seven-day period, was allocated as the control. The remaining thirty-two animals were ranked from highest to lowest on average daily milk yield, over the same time period, and divided into four blocks of eight animals each. A random number was generated for each animal using the Microsoft Excel random number generator function. Within each block, the lowest random number was allocated to Group 1, the second lowest to Group 2 and sequentially through to Group 8, creating eight groups of four animals each (Table 18).
On Day 0, the cows were weighed and blood samples were collected from all animals in Groups 1 and 2 for use in a subsequent plasma eprinomectin assay. The blood samples were stored frozen at or colder than −18° C. pending laboratory analysis. Each animal was treated with the indicated formulation at the appropriate dose rate. Doses were calculated based upon the animal's Day 0 bodyweight to provide approximately 40 mg ML/mL. Calculated doses were rounded up to the nearest 0.2 mL.
as §2
Blood samples were collected from all animals in Groups 1 and 2 for plasma eprinomectin assay on Days 1, 3 and 7 and stored frozen as described. The time of blood collection was recorded. Herd test equipment (De Laval) was used to collect an approximately 2% sample representative of the entire milking for each individual cow at the morning milking on each of Days 1-10 following treatment, and at the morning milking on Days 14, 21 and 35. Duplicate subsamples were decanted for each cow in Groups 1-4 and 7-9 and triplicate subsamples were decanted for each cow in Groups 5-6. Each sample from treated animals measured approximately 30 mL. The start and finish times for each milking of the 33 study animals were recorded to give an estimate of the actual time of milk sample collection.
The study animals were milked after the main herd. The milk line was thoroughly flushed with cold water prior to milking the study animals. The herd test equipment was cleaned between samplings. It was washed “in-line” with the milking plant wash. Sample vessels were then further cleaned through a dishwasher. The sampler connections were further cleaned by soaking in hot acid, then rinsed. Milk yields at each milking at which samples were collected were measured and recorded. […]

[2] = cited from earlier work
[3] = lactating cattle; cited from earlier work
[4] = nominal 0.3 mg/kg single IM dose of ML/Rotavec Corona combination, milk (whole milk)
[5] = nominal 0.4 mg/kg single IM dose of ML/Rotavec Corona combination, milk (whole milk)
[6] = administered topically to cattle
[7] = milk, 0.3 mg/kg, nominal 0.3 mg/kg single IM dose of ML/Rotavec Corona combination, milk (whole milk), read-out: ML residue in milk, Day 21
[8] = nominal 0.3 mg/kg single IM dose of ML/Rotavec Corona combination, milk fat
[9] = nominal 0.4 mg/kg single IM dose of ML/Rotavec Corona combination, milk fat

Structure (SMILES): CCC(C)C1OC2(C=CC1C)CC1CC(CC=C(C)C(OC3CC(OC)C(OC4CC(OC)C(NC(C)=O)C(C)O4)C(C)O3)C(C)C=CC=C3COC4C(O)C(C)=CC(C(=O)O1)C34O)O2 (stereo not shown) [Eprinomectin]
Injection site reactions, Count, Day 1 (cattle; 0.3 mg/kg IM): 0
Injection site reactions, Count, Day 3 (cattle; 0.3 mg/kg IM): 1
Injection site reactions, Count, Day 7 (cattle; 0.3 mg/kg IM): 1
Injection site reactions, Count, Day 14 (cattle; 0.3 mg/kg IM): 1
Injection site reactions, Count, Day 21 (cattle; 0.3 mg/kg IM): 1
Animals with injection site reactions that persisted at least until 21 days after treatment (cattle; 0.3 mg/kg IM): One
Injection site reactions, Count, Day 1 (cattle; 0.4 mg/kg IM): 2
Injection site reactions, Count, Day 3 (cattle; 0.4 mg/kg IM): 2
Injection site reactions, Count, Day 7 (cattle; 0.4 mg/kg IM): 1
Injection site reactions, Count, Day 14 (cattle; 0.4 mg/kg IM): 1
Injection site reactions, Count, Day 21 (cattle; 0.4 mg/kg IM): 1
Animals with injection site reactions that persisted at least until 21 days after treatment (cattle; 0.4 mg/kg IM): One
Residues in milk at 14 days after treatment relative to LOQ ([1]; all study animals (0.3 and 0.4 mg/kg IM)): below the limit of quantitation (LOQ)
Residues in milk at 7 days after treatment ([1]; all study animals (0.3 and 0.4 mg/kg IM), compared with MRL): < 0.02 mg/kg
Withholding period (milk) ([1]; estimated from residue data relative to the MRLs that apply in Europe): 7 days
ML residue in milk, Day 14 [1, 4]: <0.0010 mg/kg
ML residue in milk, Day 21 [1, 4]: <0.0010 mg/kg
ML residue in milk, Day 7 ([1]; nominal 0.3 mg/kg single IM dose of ML/Rotavec Corona combination, milk (whole milk), listed as Eprinomectin B1a): 0.0012 mg/kg and 0.0017 mg/kg and <0.0010 mg/kg and 0.0023 mg/kg
ML residue in milk, Day 14 [1, 5]: <0.0010 mg/kg
ML residue in milk, Day 21 [1, 5]: <0.0010 mg/kg
ML residue in milk, Day 7 ([1]; nominal 0.4 mg/kg single IM dose of ML/Rotavec Corona combination, milk (whole milk), listed as Eprinomectin B1a): <0.0010 mg/kg (2×) and 0.0021 mg/kg and 0.0013 mg/kg
Parent compound share of residues in feces [2, 6]: more than 85%
Parent compound share of residues in tissues [2, 6]: 90%
Milk-plasma coefficient ([2]; cattle): ≤ 0.2
Elimination in milk, fold less than ivermectin or moxidectin [3]: 50 fold
Share of the total dose eliminated in the milk [3]: 0.1%

Residues in milk at 7 days after treatment relative to ACVM MRLs [1]: near or above the ACVM MRLs
Residues in milk at 21 days after treatment relative to LOQ [1]: above the LOQ
concentration at 7 day ([1]; milk fat, 0.3 mg/kg, nominal 0.3 mg/kg single IM dose of ML/Rotavec Corona combination, milk fat, read-out: ML residue in milk fat, Day 7): 800 ng/g
concentration at 14 day ([1]; milk fat, 0.3 mg/kg, nominal 0.3 mg/kg single IM dose of ML/Rotavec Corona combination, milk fat, read-out: ML residue in milk fat, Day 14): 140 ng/g
concentration at 21 day ([1]; milk fat, 0.3 mg/kg, nominal 0.3 mg/kg single IM dose of ML/Rotavec Corona combination, milk fat, read-out: ML residue in milk fat, Day 21): 59 ng/g
concentration at 7 day ([1]; milk fat, 0.4 mg/kg, nominal 0.4 mg/kg single IM dose of ML/Rotavec Corona combination, milk fat, read-out: ML residue in milk fat, Day 7): 860 ng/g
concentration at 7 day ([1]; milk, 0.3 mg/kg, nominal 0.3 mg/kg single IM dose of ML/Rotavec Corona combination, milk (whole milk), read-out: ML residue in milk, Day 7): 40 ng/g
concentration at 14 day ([1]; milk, 0.3 mg/kg, nominal 0.3 mg/kg single IM dose of ML/Rotavec Corona combination, milk (whole milk), read-out: ML residue in milk, Day 14): 7.8 ng/g
concentration at 21 day [1, 7]: 2.6 ng/g
concentration at 7 day ([1]; milk, 0.4 mg/kg, nominal 0.4 mg/kg single IM dose of ML/Rotavec Corona combination, milk (whole milk), read-out: ML residue in milk, Day 7): 50 ng/g
ML residue in milk fat, Day 7 [1, 8]: 1.1 mg/kg and 1.0 mg/kg and 0.75 mg/kg
ML residue in milk fat, Day 14 [1, 8]: 0.26 mg/kg and 0.24 mg/kg and 0.18 mg/kg
ML residue in milk fat, Day 7 [1, 9]: 1.2 mg/kg and 1.5 mg/kg and 1.0 mg/kg
Structure (SMILES): CO/N=C1\C[C@]2(C[C@@H]3C[C@@H](C/C=C(\C)C[C@@H](C)/C=C/C=C4\CO[C@@H]5[C@H](O)C(C)=C[C@@H](C(=O)O3)[C@]45O)O2)O[C@H](/C(C)=C/C(C)C)[C@H]1C [Moxidectin, moxidectin]
ML residue in milk, Day 7 [1, 4]: 0.063 mg/kg and 0.042 mg/kg and 0.034 mg/kg
ML residue in milk, Day 14 [1, 4]: 0.010 mg/kg and 0.0099 mg/kg and 0.0079 mg/kg
ML residue in milk, Day 21 [1, 4]: 0.0040 mg/kg and 0.0031 mg/kg and 0.0041 mg/kg
ML residue in milk fat, Day 21 [1, 8]: 0.080 mg/kg and 0.068 mg/kg and 0.075 mg/kg
ML residue in milk, Day 7 [1, 5]: 0.044 mg/kg and 0.056 mg/kg and 0.037 mg/kg
ML residue in milk, Day 14 [1, 5]: 0.0081 mg/kg and 0.012 mg/kg and 0.015 mg/kg and 0.0069 mg/kg
ML residue in milk, Day 21 [1, 5]: 0.0055 mg/kg (2×) and 0.0037 mg/kg and 0.0023 mg/kg
ML residue in milk fat, Day 14 [1, 9]: 0.17 mg/kg and 0.37 mg/kg and 0.47 mg/kg and 0.15 mg/kg
ML residue in milk fat, Day 21 [1, 9]: 0.091 mg/kg and 0.12 mg/kg and 0.14 mg/kg and 0.057 mg/kg

Residues in milk at 7 days after treatment relative to ACVM MRLs [1]: near or above the ACVM MRLs
Residues in milk at 21 days after treatment relative to LOQ [1]: above the LOQ
concentration at 21 day [1, 7]: < 1 ng/g
concentration at 21 day ([1]; milk, 0.4 mg/kg, nominal 0.4 mg/kg single IM dose of ML/Rotavec Corona combination, milk (whole milk), read-out: ML residue in milk, Day 21): 1 ng/g
ML residue in milk, Day 21 [1, 4]: <0.0010 mg/kg (2×) and 0.0020 mg/kg
ML residue in milk, Day 21 [1, 5]: 0.0014 mg/kg (2×) and <0.0010 mg/kg
Structure (SMILES): CO[C@H]1C[C@H](O[C@H]2[C@H](C)O[C@@H](O[C@@H]3/C(C)=C/C[C@@H]4C[C@@H](C[C@]5(C=C[C@H](C)[C@@H](C6CCCCC6)O5)O4)OC(=O)[C@@H]4C=C(C)[C@@H](O)[C@H]5OC/C(=C\C=C\[C@@H]3C)[C@]54O)C[C@@H]2OC)O[C@@H](C)[C@@H]1O [Doramectin]
ML residue in milk, Day 7 [1, 4]: 0.0058 mg/kg and 0.0037 mg/kg and 0.0077 mg/kg and 0.0079 mg/kg
ML residue in milk, Day 14 [1, 4]: <0.0010 mg/kg and 0.0012 mg/kg and 0.0031 mg/kg and 0.0015 mg/kg
ML residue in milk, Day 7 [1, 5]: 0.014 mg/kg and 0.0061 mg/kg and 0.011 mg/kg and 0.0056 mg/kg
ML residue in milk, Day 14 [1, 5]: 0.0025 mg/kg (2×) and 0.0028 mg/kg and <0.0010 mg/kg
